According to patent US10877024B2, “Methods of determining interferon having direct inhibitory effects on tumors and uses thereof” (SUPERLAB FAR EAST LIMITED, priority 2015, dated 2020):

Legend:
[1] = tested on: human hepatoma SMMC-7721 xenografts; assay: rSIFN-co on human hepatoma SMMC-7721 xenografts in nude mice; conditions: 5 mg/kg i.v.
Protocol: The test article was used without dilution. It was stored at 4° C. until thawed for injection.
The animals used were 4-6 weeks old male BALB/cA nu/nu mice, weighing about 23±2 g, obtained from the Shanghai Institute of Materia Medica (Shanghai, P.R. China). […] Animals were housed 6 to a cage. They were ear-marked with ear hole punch identification. The room temperature was maintained at 25° C.±+1° C. Lighting was set at 12 hr on and 12 hr off. Food was provided ad libitum. City tap water, filtered with a 5 micrometer (μm) filter, was provided to the animals ad libitum via water bottles.
The test article was administered in a volume of 0.05 ml-0.15 ml per mouse per treatment, depending on the group to which the animal was assigned. […] Normal saline was injected in a volume of 0.15 ml per mouse, which was used as vehicle control.
Animals were assigned to treatment groups randomly. Initially, all animals were placed in one large animal cage. For assignment to the study, they were later separately housed, with 6 animals per cage per treatment group. Groups 1 and 2 are Control groups in which the animals were each administered the vehicle every other day after the first treatment. […] Tumor growth was monitored by measuring the length and width of each tumor twice a week during the course of the study. Each animal was also weighed twice a week during the course of the study.
Before commencement of this study, the xenografts were passaged twice in nude mice. Under sterile conditions, well-grown tumors were cut into 1.5 mm^3 fragments and one such fragment was injected by trocar needle into the right flank of each study animal. […] Individual tumor size (length and width) was measured twice per week with microcalipers. Tumor volume (V) was calculated using the formula: V=(length×width^2)/2. Individual relative tumor volume (RTV) was calculated using the formula: RTV=Vt/V0, where Vt is the tumor volume on the day of measurement and V0 is the tumor volume on the day of first treatment. Therapeutic effect of the test article or control article was expressed in terms of T/C (%), using the formula: T/C (%)=(mean RTV of the treated group/mean RTV of the control group)×100%; and in terms of % Inhibition, using the formula: % Inhibition=100%−T/C %.

[2] = tested on: human lung cancer SPC-A4 xenografts; conditions: 5 mg/kg i.v. days 1 and 6
Protocol: Under sterile conditions, well-grown tumors were cut into 1.5 mm^3 fragments and one such fragment was injected by trocar needle into the right flank of each study animal. […] Individual tumor size (length and width) was measured twice per week with microcalipers. Tumor volume (V) was calculated using the formula: V=(length×width^2)/2. Individual relative tumor volume (RTV) was calculated using the formula: RTV=Vt/V0, where Vt is the tumor volume on the day of measurement and V0 is the tumor volume on the day of first treatment. Therapeutic effect of the test article or control article was expressed in terms of T/C (%), using the formula: T/C (%)=(mean RTV of the treated group/mean RTV of the control group)×100%; and in terms of % Inhibition, using the formula: % Inhibition=100%−T/C %.
The 1.5 mm^3 fragments were then used for s.c. implantation into the test animals. The body weight of the animals averaged 22±2 g at dose initiation.

[3] = tested on: Human Cervical Cancer Hela Xenografts; assay: rSIFN-co on human cervical cancer Hela xenografts in nude mice; type: in vivo; conditions: 5 mg/kg i.v. days 1 and 13
Protocol: Then 1.5 mm^3 fragments were prepared for s.c. implantation into the animals.

[4] = tested on: Human Colon Cancer HT-29 Xenografts; assay: rSIFN-co on human colon cancer HT-29 xenografts in nude mice; type: in vivo; conditions: 5 mg/kg i.v. days 1 and 10
[5] = tested on: procaspase-3, cleaved caspase-3, procaspase-8, cleaved caspase-8, PARP; assay: Apoptosis-related molecular markers by Western Blot; type: cell-based, human; conditions: A549 and SW620 cells, 24 hr or 48 hr; interferons 10 mcg/ml
From the text: Thereafter, apoptosis-related molecular markers were monitored by Western Blot. The primary antibodies used were mouse monoclonal anti-beta-tubulin (1:2000, Cat #: CW0098A) and mouse monoclonal anti-GAPDH (1:2000, Cat #: CW0100A) (Kangwei Biotechnology, China); mouse monoclonal anti-PARP (1:1000, Cat #: sc-2007, Santa Cruz Biotechnology, Inc.); rabbit monoclonal anti-procaspase 3 (1:1000, Cat #: 9665), and rabbit polyclonal anti-cleaved caspase 3 (1:1000, Cat #: 9661) (Cell Signaling Technology, USA); goat polyclonal anti-procaspase 8 (1:1000, Cat #: sc-6136, Santa Cruz Biotechnology, Inc); rabbit monoclonal anti-cleaved caspase 8 (1:1000, Cat #: 9496) (Cell Signaling Technology, USA).

Row | SMILES | TV(mm^3, mean ± SD) (D 0) ([1]; day 0) | mean body weight ([1]; day 0) | % Inhibition ([1]; day 21) | TV(mm^3, mean ± SD) (D 21) ([1]; day 21) | mean body weight ([1]; day 21) | TV(mm^3, mean ± SD) (D 0) ([2]; day 0) | % Inhibition ([2]; day 21) | RTV (mean ± SD) ([2]; day 21) | T/C (%) ([2]; day 21) | TV(mm^3, mean ± SD) (D 21) ([2]; day 21) | TV(mm^3, mean ± SD) (D 0) ([3]; day 0) | % Inhibition ([3]; day 28) | T/C (%) ([3]; day 28) | TV(mm^3, mean ± SD) (D 28) ([3]; day 28) | TV(mm^3, mean ± SD) (D 0) ([4]; day 0) | % Inhibition ([4]; day 28) | T/C (%) ([4]; day 28) | TV(mm^3, mean ± SD) (D 28) ([4]; day 28) | level of cleaved caspase-3 and cleaved caspase-8 [5] | level of procaspase-3, procaspase-8 and PARP [5]
1 | CO[C@@]12[C@H](COC(N)=O)C3=C(C(=O)C(C)=C(N)C3=O)N1C[C@@H]1N[C@@H]12 [MMC, Mitomycin C, reference compound] | 125 ± 35 mm^3 | 23.9 gram | 47.18% | 621 ± 247 mm^3 | 25.4 gram | 166 ± 42 mm^3 | 72.87% | 11.54 ± 4.37 | 27.13% | 1831 ± 540 mm^3 | 130 ± 28 mm^3 | 60.08% | 39.92% | 676 ± 358 mm^3 | 132 ± 22 mm^3 | 62.9% | 37.10% | 395 ± 95 mm^3 | – | –
2 | O=c1[nH]cc(F)c(=O)[nH]1 [5FU, reference compound] | – | – | – | – | – | – | – | – | – | – | – | – | – | – | – | – | – | – | enhanced level | significant reduction
